Consider 9 compounds from PubChem BioAssay (NCI).

Holding throughout (assay): NCI tumour cell line growth inhibition, 48 h
Assay [1] concerns LOX IMVI melanoma.
For assay [2], the system named is A498 renal.
For assay [3], the system named is HCT-116 colon.
Assay [4] has as its system SF-268 CNS.
In assay [5] the test system is NCI-H460 lung.
Assay [6] deals with SK-MEL-28 melanoma.
The test system of assay [7] is CAKI-1 renal.
Assay [8] deals with OVCAR-3 ovarian.
In assay [9] the test system is SF-295 CNS.
For assay [10], the system named is NCI-H522 lung.

Molecules are shown by their SMILES. Values joined by “and” are separate entries in the source; they are usually repeats but may differ in a detail not shown here. Identical values can stand only once.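 How tested: cells in 96-well plates exposed to compound for 48 hours at five concentrations. GI50 is the concentration that inhibits growth by half. TGI marks complete inhibition of growth.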 A value given as a limit tells only on which side of the number the result lay.

With `COc1cc(/C=C2\[C@H]3c4c(c(OC)c(C)c(OC)c4OC)CC(C(=O)N2Cc2ccccc2)N3C)c(OC)c(C)c1OC`, the TGI was 33.4 µM in assay [1]; 50.1 µM in [2]; over 100 µM in assay [3]; 61.3 µM in [4]; 32 µM in assay [5]; 64.2 µM in [6]. Moreover, the TGI in assay [7] turned out to be 73.6 µM; in [8] it was 31.2 µM; in [9] it was 41.5 µM; in assay [10], 30.2 µM.

For the compound `COc1cc2c(Nc3cc(Cl)c(OC)c(Cl)c3)c(C#N)cnc2cc1OCCCN1CCN(C)CC1`, the GI50 is 1.06 µM in [1]; 0.904 µM in [2]; 1.21 µM in [3]; 1.9 µM in [4]; 1.91 µM in assay [5]; 1.97 µM in [6]. In addition, the GI50 is 0.606 µM in [7], 1.65 µM in [8], 2.49 µM in assay [9] and 0.365 µM in assay [10]. In addition, the TGI in assay [1] amounted to 2.43 µM; in assay [2] it was 2.61 µM; in assay [3] it was 3.49 µM; in assay [4] it was 6.92 µM; in assay [5], 8.47 µM; in [6], 4.53 µM. For the same compound, the TGI stood at 15.1 µM in [7], 4.49 µM in [8], 7.45 µM in assay [9] and 2.17 µM in assay [10].

With `COc1ccc(-c2ccc3c(N4CCOC[C@@H]4C)nc(N4CCOC[C@@H]4C)nc3n2)cc1CO`, the GI50 in [1] was 0.00476 µM and 0.028 µM; in assay [2], 0.00121 µM and < 0.01 µM; in [3], 0.00858 µM and 0.0734 µM; in [4], 0.00537 µM and 0.0359 µM; in [5], 0.00417 µM and 0.0101 µM; in [6], 0.00476 µM and 0.0135 µM. For the same compound, the GI50 in assay [7] was 0.00473 µM and 0.0302 µM; in assay [8], 0.00504 µM and 0.0334 µM; in assay [9] it was 0.00412 µM and < 0.011 µM; in assay [10] it was 0.00484 µM. Besides, the TGI in assay [1] is over 100 µM; in assay [2], 0.00302 µM and < 0.0234 µM; in [3] it was over 100 µM; in [4] it was > 3.31 µM and 51.1 µM; in [5] it was over 100 µM; in assay [6] it was 0.181 µM. Moreover, the TGI in assay [7] was 5.15 µM; in assay [8] it was over 34.6 µM; in assay [9], 0.0462 µM and 0.18 µM.

As to `COc1ccc(C(CC(=O)c2ccc3c(c2)OCO3)c2c(O)c3ccccc3oc2=O)cc1OC` (centres undefined), the TGI in assay [1], in assay [2], in [3], in [4], in assay [5] and in assay [6] was over 100 µM each time. For the same compound, the TGI in [7], in [8], in assay [9] and in [10] was over 100 µM each time.

As for `CCCC/C(=C\C1=C(C)C(=O)C(OC)=C(OC)C1=O)C(=O)O`, the GI50 in assay [1], in assay [2], in assay [3], in [4], in [5] and in assay [6] was over 100 µM each time. Also, the GI50 in [7], in [8], in [9] and in assay [10] was over 100 µM throughout. For the same compound, the TGI in assay [1], in assay [2], in [3], in assay [4], in assay [5] and in assay [6] was over 100 µM each time. Also, the TGI in assay [7], in [8], in assay [9] and in [10] was over 100 µM throughout.

For `CCNC(=O)/C(=C/c1ccc(OC)cc1)c1cc(OC)c(OC)c(OC)c1`, the TGI in [1] is over 100 µM; in [2], over 63.8 µM; in [3], over 100 µM; in [4] it was over 100 µM; in assay [5], 57 µM; in [6] it was over 100 µM. The TGI in [7] is over 100 µM; in assay [8], 15 µM; in assay [9], 19.6 µM; in assay [10], 20.8 µM.

Consider `CCN(CC)CCCCCCNc1cccc2cc(Br)cnc12`, for which the GI50 in [1] is 2.64 µM; in [2], 4.28 µM; in [3], 3.39 µM; in [4], 10.9 µM; in assay [5] it was 4.25 µM; in [6], 2.82 µM. The GI50 was 2.83 µM in assay [7], 8.63 µM in assay [8], 2.88 µM in [9] and 1.88 µM in [10]. Besides, the TGI in [1] turned out to be 8.07 µM; in [2], 21.3 µM; in assay [3], 14.2 µM; in assay [4], 27.5 µM; in assay [5] it was 16.5 µM; in [6], 6.76 µM. Also, the TGI in [7] was 12.4 µM; in [8], 24.8 µM; in assay [9] it was 10 µM; in [10] it was 4.97 µM.

As for `Cc1cccc(C2=C/C(=C(\SS/C(C(=O)c3ccc(OCC(=O)O)c(Cl)c3Cl)=C3\C=C(c4cccc(C)c4)SS3)C(=O)c3ccc(OCC(=O)O)c(Cl)c3Cl)SS2)c1`, the TGI in [1] was 18 µM; in [2], 49.4 µM; in [3], over 53.8 µM; in [4], 39.6 µM; in assay [5], over 68.1 µM; in assay [6], 87.4 µM. The TGI in [7] is 66.3 µM; in assay [8], 50.8 µM; in [9], over 85.6 µM; in assay [10], 8.14 µM.

Regarding `O=C(NCc1ccc(Cn2c(=O)sn(-c3ccccc3)c2=O)cc1)OCc1ccc2cccc(O)c2n1`, the GI50 is 0.273 µM in assay [1]; 0.382 µM in [2]; 0.259 µM in assay [3]; 1.55 µM in assay [4]; 1.41 µM in assay [5]; 1.34 µM in assay [6]. Moreover, the GI50 is 0.479 µM in assay [7], 0.363 µM in [8], 2.14 µM in [9] and 0.407 µM in assay [10]. Also, the TGI in assay [1] was 0.955 µM; in [2], 1.89 µM; in [3], 1.14 µM; in assay [4], 3.04 µM; in assay [5], 3.13 µM; in assay [6], 2.64 µM. Further, the TGI in assay [7] was found to be 1.84 µM; in assay [8], 1.36 µM; in [9] it was 5.82 µM; in [10] it was 1.69 µM.
